Experimental data published in patent EP3046573B1, “AMYLIN ANALOGUES” (Zealand Pharma A/S, priority 2013, dated 2015).
Like-named read-outs stand apart in the source and are kept apart here. Numbered stars: 1 amine (or outer) side, 2 acyl side, 3 side chain; on linkers, the order of the positions; unused ones are H or OH. Bridge positions count the residues as written; N and C are the ends. Square brackets hold non-standard residues; d marks the D form. Peptide text beside a SMILES is read from it. * marks the point of attachment. C20 diacid = O=C(O)CCCCCCCCCCCCCCCCCCC(=O)*; γGlu = O=C(O)[C@H](CCC(=O)[*:2])N[*:1]; NMeI = CC[C@H](C)[C@H](NC)C(=O)O; Sar = CNCC(=O)O

Assays:
[1] = biological target: T1, human amylin receptor 3 (hAMYR3) consisting of hCTR2 co-expressed with human Receptor Activity Modifying Protein 3 (hRAMP3) (Homo sapiens, UniProt O60896+P30988); assay: hAMYR3 assay: induction of cAMP (AlphaScreen cAMP Assay kit) in COS7 cells expressing hAMYR3; type: cell-based; settings: cAMP induction in COS7 cells expressing hAMYR3; average of a minimum of 3 determinations; read-out: hAMY R3 EC50
T1 construct: expressed in transfected cells
T1 sequence (P30988 25-474): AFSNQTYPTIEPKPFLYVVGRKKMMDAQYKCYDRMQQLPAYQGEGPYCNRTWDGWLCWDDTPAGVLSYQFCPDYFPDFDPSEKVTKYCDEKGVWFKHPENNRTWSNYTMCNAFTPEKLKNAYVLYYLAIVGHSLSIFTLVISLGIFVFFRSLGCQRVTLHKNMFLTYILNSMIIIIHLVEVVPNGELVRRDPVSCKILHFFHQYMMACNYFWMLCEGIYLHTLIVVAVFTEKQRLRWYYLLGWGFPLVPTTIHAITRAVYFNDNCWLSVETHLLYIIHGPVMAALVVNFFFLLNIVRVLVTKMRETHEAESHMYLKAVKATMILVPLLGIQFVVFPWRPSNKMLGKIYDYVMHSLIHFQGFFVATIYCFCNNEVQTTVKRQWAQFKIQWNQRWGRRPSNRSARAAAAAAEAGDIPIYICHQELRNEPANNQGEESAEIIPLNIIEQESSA
T1 sequence (O60896 24-148 partner): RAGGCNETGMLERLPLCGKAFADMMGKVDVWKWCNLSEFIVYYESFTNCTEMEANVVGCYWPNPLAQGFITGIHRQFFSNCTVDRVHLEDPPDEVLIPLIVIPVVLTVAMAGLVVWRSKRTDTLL
Outline: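 Stable COS7 clone co-expressing hCTR2 and hRAMP3, stimulated 15 min at 37° C with increasing peptide in Tyrode buffer pH 7.4 with 100 µM IBMX and 0.1% casein. cAMP measured by AlphaScreen after lysis; EC50 and % efficacy versus pramlintide from 4PL fit.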

[2] = biological target: T2, human calcitonin receptor (hCTR2) (Homo sapiens, UniProt P30988); assay: hCTR2 assay: induction of cAMP (AlphaScreen cAMP Assay kit) in COS7 cells expressing hCTR2; type: cell-based
T2 construct: expressed in transfected cells
T2 sequence (P30988 25-474): T1 sequence (P30988 25-474)
Outline: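 COS7 stable hCTR2 clone (RAMP-free); peptide dose-response 15 min 37° C in Tyrode pH 7.4 + 100 µM IBMX + 0.1% casein; lysis 10 min RT; AlphaScreen cAMP; 4PL fit.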

[3] = Solubility assessment (turbidity absorbance at 325 nm); type: physicochemical; settings: stock 2 mg/ml diluted 1:1, ambient temperature (typically 25°C), n=1; for Solubility, Acetate buffer pH 4: 100 mM acetate buffer pH 4.0; for Solubility, Acetate buffer pH 5: 100 mM acetate buffer pH 5.0; for Solubility, Histidine buffer pH 6: 100 mM histidine buffer pH 6.0; for Solubility, Histidine buffer pH 7: 100 mM histidine buffer pH 7.0; for Solubility, Phosphate buffer pH 6: 100 mM phosphate buffer pH 6.0; for Solubility, Phosphate buffer pH 7: 100 mM phosphate buffer pH 7.0; for Solubility, Phosphate buffer pH 7.5: 100 mM phosphate buffer pH7.5
Outline: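 Peptide stock (2 mg/ml) in water acidified to pH 2.5 with HCl was diluted 1:1 into 100 mM acetate (pH 4.0, 5.0), histidine (pH 6.0, 7.0) or phosphate (pH 6.0, 7.0, 7.5) buffer. A280 and A325 were read at about 25°C, n=1. A325 ≤ 0.02 meant solubility ≥ 1 mg/ml.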

[4] = cAMP induction in COS7 cells expressing hCTR2, average of a minimum of 3 determinations, read-out: hCTR2 EC50

Compound | EC50 [1] | EC50 [2, 4] | Solubility, Acetate buffer pH 4 [3] | Solubility, Acetate buffer pH 5 [3] | Solubility, Histidine buffer pH 6 [3] | Solubility, Histidine buffer pH 7 [3] | Solubility, Phosphate buffer pH 6 [3] | Solubility, Phosphate buffer pH 7 [3] | Solubility, Phosphate buffer pH 7.5 [3] | EC50 [2]
CC[C@H](C)[C@@H](C(=O)N[C@@H](CC(C)C)C(=O)N[C@@H](CO)C(=O)N[C@@H](CO)C(=O)N[C@H](C(=O)N[C@@H](CCC(=O)O)C(=O)N[C@H](C(=O)NCC(=O)N[C@@H](CO)C(=O)N[C@@H](CCC(=O)O)C(=O)N[C@H](C(=O)N1CCC[C@H]1C(N)=O)[C@@H](C)O)C(C)C)[C@@H](C)O)N(C)C(=O)[C@H](C)NC(=O)CN(C)C(=O)[C@H](Cc1ccccc1)NC(=O)[C@H](CO)NC(=O)[C@H](CO)NC(=O)[C@H](CO)NC(=O)[C@H](CO)NC(=O)[C@H](CCCNC(=N)N)NC(=O)[C@H](Cc1c[nH]cn1)NC(=O)[C@H](CC(C)C)NC(=O)[C@H](Cc1ccccc1)NC(=O)[C@H](CCC(=O)O)NC(=O)[C@H](C)NC(=O)[C@H](CC(C)C)NC(=O)[C@H](CCCNC(=N)N)NC(=O)[C@@H](NC(=O)[C@@H](NC(=O)[C@H](C)NC(=O)[C@@H]1CSSC[C@H](NC(=O)[C@H](CCCNC(=N)N)NC(=O)CC[C@H](NC(=O)CCCCCCCCCCCCCCCCCCC(=O)O)C(=O)O)C(=O)N[C@@H](CC(N)=O)C(=O)N[C@@H]([C@@H](C)O)C(=O)N[C@@H](C)C(=O)N[C@@H]([C@@H](C)O)C(=O)N1)[C@@H](C)O)[C@@H](C)O [Compound 123, [19CD]-isoGlu-RC()NTATC()ATTRLAEFLHRSSSSF-Gly(Me)-A-Ile(Me)-LSSTEVGSETP-NH2] ({C20 diacid-γGlu}-RCNTATCATTRLAEFLHRSSSSF[Sar]A[NMeI]LSSTEVGSETP-NH2; disulfide 2-7) | 0.29 nM | 0.28 nM | SS (SS indicates solubility ≥ 1mg/ml) | SS (SS indicates solubility ≥ 1mg/ml) | SS (SS indicates solubility ≥ 1mg/ml) | SS (SS indicates solubility ≥ 1mg/ml) | SS (SS indicates solubility ≥ 1mg/ml) | SS (SS indicates solubility ≥ 1mg/ml) | SS (SS indicates solubility ≥ 1mg/ml) | –
CC[C@H](C)[C@@H](C(=O)N[C@@H](CC(C)C)C(=O)N[C@@H](CO)C(=O)N[C@@H](CO)C(=O)N[C@H](C(=O)N[C@@H](CCC(=O)O)C(=O)N[C@H](C(=O)NCC(=O)N[C@@H](CO)C(=O)N[C@@H](CCC(=O)O)C(=O)N[C@H](C(=O)N1CCC[C@H]1C(N)=O)[C@@H](C)O)C(C)C)[C@@H](C)O)N(C)C(=O)[C@H](C)NC(=O)CN(C)C(=O)[C@H](Cc1ccccc1)NC(=O)[C@H](CO)NC(=O)[C@H](CO)NC(=O)[C@H](CO)NC(=O)[C@H](CO)NC(=O)[C@H](CCCNC(=N)N)NC(=O)[C@H](Cc1c[nH]cn1)NC(=O)[C@H](CC(C)C)NC(=O)[C@H](Cc1ccccc1)NC(=O)[C@H](CCC(=O)O)NC(=O)[C@H](C)NC(=O)[C@H](CC(C)C)NC(=O)[C@H](CCCNC(=N)N)NC(=O)[C@H](CO)NC(=O)[C@@H](NC(=O)[C@H](C)NC(=O)[C@@H]1CSSC[C@H](NC(=O)[C@H](CCCNC(=N)N)NC(=O)CC[C@H](NC(=O)CCCCCCCCCCCCCCCCCCC(=O)O)C(=O)O)C(=O)N[C@@H](CC(N)=O)C(=O)N[C@@H]([C@@H](C)O)C(=O)N[C@@H](C)C(=O)N[C@@H]([C@@H](C)O)C(=O)N1)[C@@H](C)O [Compound 124, [19CD]-isoGlu-RC()NTATC()ATSRLAEFLHRSSSSF-Gly(Me)-A-Ile(Me)-LSSTEVGSETP-NH2] ({C20 diacid-γGlu}-RCNTATCATSRLAEFLHRSSSSF[Sar]A[NMeI]LSSTEVGSETP-NH2; disulfide 2-7) | 0.17 nM | 0.14 nM | SS (SS indicates solubility ≥ 1mg/ml) | SS (SS indicates solubility ≥ 1mg/ml) | SS (SS indicates solubility ≥ 1mg/ml) | SS (SS indicates solubility ≥ 1mg/ml) | SS (SS indicates solubility ≥ 1mg/ml) | SS (SS indicates solubility ≥ 1mg/ml) | SS (SS indicates solubility ≥ 1mg/ml) | –
CC[C@H](C)[C@@H](C(=O)N[C@@H](CC(C)C)C(=O)N[C@@H](CO)C(=O)N[C@@H](CO)C(=O)N[C@H](C(=O)N[C@@H](CCC(=O)O)C(=O)N[C@H](C(=O)NCC(=O)N[C@@H](CO)C(=O)N[C@@H](CCC(=O)O)C(=O)N[C@H](C(=O)N1CCC[C@H]1C(N)=O)[C@@H](C)O)C(C)C)[C@@H](C)O)N(C)C(=O)[C@H](C)NC(=O)CN(C)C(=O)[C@H](Cc1ccccc1)NC(=O)[C@H](CO)NC(=O)[C@H](CO)NC(=O)[C@H](CO)NC(=O)[C@H](CO)NC(=O)[C@H](CCCNC(=N)N)NC(=O)[C@H](Cc1c[nH]cn1)NC(=O)[C@H](CC(C)C)NC(=O)[C@H](Cc1ccccc1)NC(=O)[C@H](CCC(=O)O)NC(=O)[C@H](C)NC(=O)[C@H](CC(C)C)NC(=O)[C@H](CCCNC(=N)N)NC(=O)[C@H](CCC(N)=O)NC(=O)[C@@H](NC(=O)[C@H](C)NC(=O)[C@@H]1CSSC[C@H](NC(=O)[C@H](CCCNC(=N)N)NC(=O)CC[C@H](NC(=O)CCCCCCCCCCCCCCCCCCC(=O)O)C(=O)O)C(=O)N[C@@H](CO)C(=O)N[C@@H]([C@@H](C)O)C(=O)N[C@@H](C)C(=O)N[C@@H]([C@@H](C)O)C(=O)N1)[C@@H](C)O [Compound 126, [19CD]-isoGlu-RC()STATC()ATQRLAEFLHRSSSSF-Gly(Me)-A-Ile(Me)-LSSTEVGSETP-NH2] ({C20 diacid-γGlu}-RCSTATCATQRLAEFLHRSSSSF[Sar]A[NMeI]LSSTEVGSETP-NH2; disulfide 2-7) | 0.28 nM | – | SS (SS indicates solubility ≥ 1mg/ml) | SS (SS indicates solubility ≥ 1mg/ml) | SS (SS indicates solubility ≥ 1mg/ml) | SS (SS indicates solubility ≥ 1mg/ml) | SS (SS indicates solubility ≥ 1mg/ml) | SS (SS indicates solubility ≥ 1mg/ml) | SS (SS indicates solubility ≥ 1mg/ml) | 0.21 nM
CC[C@H](C)[C@@H](C(=O)N[C@@H](CC(C)C)C(=O)N[C@@H](CO)C(=O)N[C@@H](CO)C(=O)N[C@H](C(=O)N[C@@H](CCC(=O)O)C(=O)N[C@H](C(=O)NCC(=O)N[C@@H](CO)C(=O)N[C@@H](CCC(=O)O)C(=O)N[C@H](C(=O)N1CCC[C@H]1C(N)=O)[C@@H](C)O)C(C)C)[C@@H](C)O)N(C)C(=O)[C@H](C)NC(=O)CN(C)C(=O)[C@H](Cc1ccccc1)NC(=O)[C@H](CO)NC(=O)[C@H](CO)NC(=O)[C@H](CO)NC(=O)[C@H](CO)NC(=O)[C@H](CCCNC(=N)N)NC(=O)[C@H](Cc1c[nH]cn1)NC(=O)[C@H](CC(C)C)NC(=O)[C@H](Cc1ccccc1)NC(=O)[C@H](CCC(=O)O)NC(=O)[C@H](C)NC(=O)[C@H](CC(C)C)NC(=O)[C@H](CCCNC(=N)N)NC(=O)[C@H](CCC(N)=O)NC(=O)[C@@H](NC(=O)[C@H](C)NC(=O)[C@@H]1CSSC[C@H](NC(=O)[C@H](CCCNC(=N)N)NC(=O)CC[C@H](NC(=O)CCCCCCCCCCCCCCCCCCC(=O)O)C(=O)O)C(=O)N[C@@H](CC(=O)O)C(=O)N[C@@H]([C@@H](C)O)C(=O)N[C@@H](C)C(=O)N[C@@H]([C@@H](C)O)C(=O)N1)[C@@H](C)O [Compound 127, [19CD]-isoGlu-RC()DTATC()ATQRLAEFLHRSSSSF-Gly(Me)-A-Ile(Me)-LSSTEVGSETP-NH2] ({C20 diacid-γGlu}-RCDTATCATQRLAEFLHRSSSSF[Sar]A[NMeI]LSSTEVGSETP-NH2; disulfide 2-7) | 0.58 nM | 0.19 nM | SS (SS indicates solubility ≥ 1mg/ml) | SS (SS indicates solubility ≥ 1mg/ml) | SS (SS indicates solubility ≥ 1mg/ml) | SS (SS indicates solubility ≥ 1mg/ml) | SS (SS indicates solubility ≥ 1mg/ml) | SS (SS indicates solubility ≥ 1mg/ml) | SS (SS indicates solubility ≥ 1mg/ml) | –
